SMILES | melting point [°C]
COc1ccc(-c2c(C)cc3c(O)cc(C)nn23)c(C)c1 | 234 to 237
O=C(O)C1COC(C(F)(F)F)(C(F)(F)F)O1 (stereo not given) | 62 to 63
COCCOc1cc(N)c(S(C)(=O)=O)cc1[N+](=O)[O-] | 166 to 167
Cc1cc(NCCO)c2[nH]nc(-c3ccccc3)c2n1 | 135
COc1cc2ncc(C#N)c(Nc3cccc(Oc4ccccc4)c3)c2cc1OC | 253 to 254
COCCOCCOCCC1(CCOCCOCCOC)c2cc(C#Cc3ccc(C=O)s3)ccc2-c2ccc(C#Cc3ccc(C=O)s3)cc21 | 84
CC(C)C(=O)Nc1cccc(N(CCO)CCO)c1 | 120 to 122
CCCCCCCC(=O)c1[nH]c(=O)[nH]c1C | 220 to 221
Cc1c2n(c3ccccc13)C(=O)C(Cc1cncn1C)CC2 (stereo not given) | 117 to 118
CC(=O)c1ccc(CCCOc2c(C)cc(N3CN=C(C(F)F)O3)cc2C)nn1 | 95 to 96
Cc1ccc(C(=O)Nc2ccc(CN3CCOCC3)c(C(F)(F)F)c2)cc1Br | 147 to 151
COCOc1ccc(Cl)cc1-c1cc(-c2cccc([N+](=O)[O-])c2)c(C#N)c(NC(=O)c2cccs2)n1 | 161 to 162
O=C(O)CC1(CCCCCCCCCCC2(C(=O)O)CC2)CC1 | 71.9 to 74.3
CNC(=N[N+](=O)[O-])N(Cc1cnc(Cl)s1)C(C)=O | 105 to 106
NC1C=CC=CN1NS(=O)n1ccnc1 (stereo not given) | 174 to 175
CN1C(=O)CC[C@]2(C)c3ccc(-c4ccc5c(c4)C(=O)C(=O)N5)cc3CC[C@@H]12 | > 250
NC(=O)C1=CCCc2cc(Sc3ccccc3)cc(F)c21 | 224 to 226
CC(Oc1ncn(-c2cccc(C(F)(F)F)c2)n1)C(=O)N(C)C (stereo not given) | 126 to 127

SMILES | melting point [°C]
COc1cccc(-c2[nH]c(-c3ccc(N)cc3)nc2C(=O)Nc2nccs2)c1 | 262 to 263
COC(=O)C1=C(C)N=C(OC)N(C(=O)Oc2ccc([N+](=O)[O-])cc2)C1c1ccc2nonc2c1 (stereo not given) | 180 to 183
CCc1nc(-c2cc3[nH]c(=O)c(=O)[nH]c3cc2[N+](=O)[O-])c[nH]1 | 249 to 250
CCc1ccc(Nc2c(-c3nnc(NCCO)o3)ccc(F)c2F)c(F)c1 | 100 to 103
COC(=O)c1ccc(-c2nc(-c3ccc4c(c3)C(C)(C)CCC4(C)C)co2)cc1 | 207 to 208
COc1ccc(S(=O)(=O)C2(C(=O)NO)CCN(CCCOc3ccccc3)CC2)cc1 | 101
N#Cc1c(N)ccc(C(=O)CBr)c1Cl | 180 to 207
Cc1c(F)c(F)cc(C(=O)O)c1Cl | 121 to 122
CCN1CCC(Cc2ccc(Cl)nc2)C1=C[N+](=O)[O-] (stereo not given) | 129 to 131
CC(C)=CC(C#N)NC(=O)c1cn(C)nc1C (stereo not given) | 110 to 112
CC(=O)NCC1CN(c2ccc(N3CCC(O)(C(C#N)C4CC4)CC3)c(F)c2)C(=O)O1 (stereo not given) | 170 to 172
NC(=O)N1CCC(Oc2c(F)c(F)c(F)c(F)c2F)(c2ccccc2)CC1 | 155 to 160
C#Cc1cc(Oc2cnc(N)nc2N)c(C#C)cc1OC | 163 to 164
c1ccc(-c2nn3c(c2-c2nc4ccccc4[nH]2)CCC3)nc1 | 172 to 175
Clc1ccc(Cn2cnc3c(-c4ccco4)ncnc32)cc1 | 156 to 159
CC(C)(C)[C@H](NC(=O)[C@@H](CC(=O)OCc1ccccc1)n1ccc(-c2ccc(-c3ccc(C#N)cc3)cc2)c1)C(=O)Nc1ccncc1 | 115 to 116
Cc1c(O)cc2c(c1C)CCC2c1c[nH]cn1 (stereo not given) | 198 to 202

Results, then the compound that gave them:

melting point [°C] | SMILES
186 to 187 | CC1(C)CC(OC(=O)Nc2ccccc2)CC(C)(C)N1CC(O)c1ccccc1 (stereo not given)
140 to 145 | CCOC(=O)C1=C(C(F)(F)F)Nc2n[nH]cc2C1c1ccsc1 (stereo not given)
138 to 140 | CC1c2cc(F)ccc2-c2ccc(F)cc2N1C(=O)c1ccc(O)cc1 (stereo not given)
149 to 150 | COc1cccc(CN2CCN(CCCOc3ccc4c(C)cc(=O)[nH]c4c3)CC2)c1
123 to 124 | COC(=O)CCCc1cc2nc(Cl)ccc2n1S(=O)(=O)c1ccc(-c2ccccn2)cc1
163 to 165 | CSc1cc2c(cc1C(F)(F)F)N(C(=O)Nc1ccccc1)CC2
157 to 162 | O=C(Nc1ccc(-n2nc(C(F)(F)F)cc2C2CC2)nc1)c1c(F)cccc1F
155 to 157 | CCN(CC)CCCCC1CCCCN1CCNC(=O)N1c2ccccc2C(=O)Nc2cccnc21 (stereo not given)
200 to 202 | O=C(Nc1ccc(S(=O)(=O)c2ccccn2)cc1)C(O)(C(F)F)C(F)F
88 to 89 | CC(=O)c1cccc(C)c1NC(=O)CCl
147 to 148 | CCOc1nn(-c2ccc(C(F)(F)F)cn2)cc1CCCOc1cc(OC)ccc1CC(=O)O
270 to 273 | COc1ccc2c(c1)c(-c1cc3nccnc3[nH]1)cn2CCO
151 | COc1cc(-c2cc(C3CCOCC3)no2)cc2oc(=O)c(C)c(C)c12
211 to 212 | CCS(=O)(=O)Nc1cc(C2(NC)NC=NC=C2Cl)c(F)cc1C#N (stereo not given)
226 to 228 | CCN1CCN(C(=O)N2CCC(N3N=C(c4ccc(OC)c(OC)c4)[C@H]4CC=CC[C@H]4C3=O)CC2)C(=O)C1=O
87 to 88 | COc1ccc(Oc2cccc(C)c2)c(NS(C)(=O)=O)c1
73.5 to 75.5 | O=C(COc1ccc([N+](=O)[O-])cc1)OCCO
220 to 221 | O=C(c1ccc(-c2cc(Cl)ccc2O)cc1C(F)(F)F)N1CCCC1

melting point [°C] | SMILES
247 to 248 | C[Si](C)(C)c1ccc(C(=O)Nc2nnn[nH]2)o1
55 to 57 | CCCCCCCCCCCCCc1ccc(-c2nc(-c3ccccc3Cl)nn2C)cc1
66 to 67 | CSc1ccc(CCCOCCCCCCNCC(O)c2ccc(O)c(F)c2)cc1 (stereo not given)
138 to 139 | S=C1NCCSc2ccsc21
227 to 230 | CN(C)CC(=O)OCc1ccc2c(c1)-c1n[nH]c(=O)c3cccc(c13)O2
245 | COc1nc(C)nc(NNC(N)=NS(=O)(=O)c2ccccc2OC(F)(F)F)n1
60 to 61 | CCOC(=O)CCC1CCC(=O)N1 (stereo not given)
186 to 190 | NC(=O)c1c(Cl)c(-c2ccccc2)n2c1CN(S(=O)(=O)c1ccc(-c3ccon3)s1)CC2
54 to 55 | CCCCCCCCCCCCOCC(CO)(CO)COCCCCCCCCCCCC
185 to 187 | COc1cc(CN2CCN(C)CC2C2=NCCN2)cc(OC)c1OC (stereo not given)
114 to 116 | CC(C)(C)c1ccc(OCCOc2ccccc2[N+](=O)[O-])c([N+](=O)[O-])c1
166 to 167 | CCOCOc1cc(F)ccc1-c1cc(-c2cccc([N+](=O)[O-])c2)c(C#N)c(NC(=O)c2cccs2)n1
102 to 105 | COC(=O)C1Cc2c([nH]c3ccccc23)C(c2cc(OC)ccc2OC)N1 (stereo not given)
> 95 | c1ccc(CN(Cc2ccccc2)C2CCC3(CC2)OCCO3)cc1
252 to 253 | CCOc1ccc(S(=O)(=O)N(CC(=O)NN=C2C(=O)Nc3ccc([N+](=O)[O-])cc32)c2ccccc2)cc1
> 300 | O=C1NC(=O)C(c2c[nH]c3ccccc23)=C1C(=O)c1cn2c3c(cccc13)CCC2
86 to 88 | CCOC(=O)CN(Cc1ccccc1)C(=S)CCc1nc2c(F)c(F)cc(F)c2s1
